A melting point compilation (Tetko et al.; mined from patent text by program, amines drawn as free bases though some values may be those of a salt)

| SMILES | melting point [°C] |
| --- | --- |
| N#CCCNC(=O)c1n[nH]cc1NC(=O)c1cc(Cl)ccn1 | 261 to 263 |
| BrCCCCOc1ccc(OCCCBr)cc1 | 73 to 76 |
| COc1ccc(-c2cc3ccccc3[nH]2)cc1NCc1ccc([N+](=O)[O-])cc1 | 198 to 199 |
| CC(C)Cc1nn(C)c(=O)c2cc(C(O)c3cccc4ccccc34)oc12 (stereo unspecified) | 110 to 112 |
| COC(=O)c1ccc(SCc2c(O[C@H](Cn3ccnc3)c3ccccc3)ccc3c2CCCC3=O)cc1 | 75 |
| C=CCNC(=O)c1ccccc1I | 105 to 106 |
| CN(c1cccc2cc(-c3nccs3)[nH]c12)S(=O)(=O)c1cccs1 | 201 to 202 |
| CCN(CC)C(=O)c1cc(-n2c(=O)cc(C(F)(F)F)[nH]c2=O)c(F)cc1Cl | 253 to 254 |
| CCNCC1(C)CN(c2cc3c(cc2F)c(=O)c(C(=O)O)cn3C2CC2)C1 | 221 to 226 |
| COc1cc(CCCC2SC(=O)NC2=O)ccc1OCc1csc(/C=C/c2ccccc2)n1 (stereo unspecified) | 161 to 162 |
| CC1(C)CCC(C)(C)c2cc(-c3ccccc3C=O)ccc21 | 85 to 87 |
| CCCCOC(=O)N1CCNCC1 | 98 |
| CC(C)c1ccccc1Sc1c(O)cc(-c2ccc(OCC(=O)O)cc2)oc1=O | 217 |
| C#CCSc1ncn(C(=O)N(CC)CC)n1 | 67 to 69 |
| Cc1ccc(S(=O)(=O)Cc2ccccc2)cc1 | 49 to 51 |
| CCC1(C)CC(C#N)(NC(=O)Nc2ccccc2)C(C)C(C)(CC)N1 (stereo unspecified) | 167 to 170 |
| O=C(O)c1cccc(-c2nc(-c3cccc(C(F)(F)F)c3)cs2)c1 | 229 to 230 |
| CC(C)(C(N)=O)C(O)(Cn1cncn1)c1ccc(Cl)cc1Cl (stereo unspecified) | 162 to 163 |
| Fc1ccc(F)c(CC2CCN(C3CC=C(c4ccc5c(c4)OCO5)CC3)CC2)c1 (stereo unspecified) | 87 to 88 |
| COc1ccc(C(=O)NCC(O)CCl)cc1OC (stereo unspecified) | 104 to 106 |
| CC12Nc3ccccc3N1C(=O)c1ccccc12 (stereo unspecified) | 182 |
| CC(=O)N1c2cc(Cl)ccc2OP1c1ccccc1 (stereo unspecified) | 56 to 58 |
| CN(C(=O)OC(C)(C)C)c1cc(Oc2ccc(-c3nnn(C(c4ccccc4)(c4ccccc4)c4ccccc4)n3)cc2)ccc1[N+](=O)[O-] | 161 to 163 |
| COc1ccc(C(=O)N(c2ccccc2)c2ccc(OCCCN(C)C)cc2)cc1 | 111 to 115 |
| CC(C)[C@H](NC(=O)OCc1ccccn1)C(=O)N[C@@H](Cc1ccccc1)C[C@H](O)[C@H](Cc1ccccc1)NC(=O)OCc1cccnc1 | 172 to 174 |
| CCCc1ccc(C(=O)Nc2ccc(C(=O)c3ccccc3)cc2)cc1 | 119 to 122 |

| SMILES | melting point [°C] |
| --- | --- |
| CCn1cc(CN(C(=O)C2CCCc3cc(OC)ccc32)c2ccc(C(C)C)cc2)cn1 (stereo unspecified) | 111 to 113 |
| Cn1cc(SC(F)(F)F)c(=O)c(-c2cccc(C(F)(F)F)c2)c1 | 122 to 124 |
| c1coc(Cn2c(NC3CCN(CCOc4nccs4)CC3)nc3ccccc32)c1 | 136 |
| CC1c2ccccc2COc2ccc(C(=O)O)cc21 (stereo unspecified) | 224 to 226 |
| CN1CCC(N2C(=O)Nc3ccccc3C2c2ccccc2)CC1 (stereo unspecified) | 252 to 253 |
| COC(=O)c1cnc(CO)n1C | 145 to 147 |
| N#Cc1ncc(SCC(=O)O)nc1C#N | 141 to 143 |
| CCCn1cc2c(C3C(=O)Nc4ccc(S(=O)(=O)N(C)C)cc43)nc(Cl)nc2n1 (stereo unspecified) | > 300 |
| CCn1cc(C(=O)O)c(=O)c2cc(F)c(-n3cccc3)nc21 | 257 to 259 |
| CCCNc1nc(C#N)c(C#N)nc1-c1ccccc1 | 136 to 137 |
| CN(C)c1nn(-c2cc(F)c(C#N)cc2F)c(=O)n1N | 154 to 155 |
| Cc1cc(C)cc(Nn2cnc(C)c2-c2ccccc2)c1 | 154 to 156 |
| O=C(NNc1ccccc1C(F)(F)F)c1c(F)cccc1F | 129 to 130 |
| Cc1nnc2ccc(-c3cccc(N(C)C(=O)C4CC4)c3)nn12 | 169 to 172 |
| COC(=O)C(=NO)N(C)c1cccc(C(F)(F)F)c1 | 131 |
| CCOC(=O)c1cnn(-c2ccc3ccccc3n2)c1S(N)(=O)=O | 140 to 141 |
| CNC(=O)c1nc(SC)n2c1CN=C(c1ccccc1Cl)c1cc(Cl)ccc1-2 | 224 to 227 |
| Cc1cccc(NC(=O)CN2CCN(c3ncccc3C#N)CC2)c1C | 124 to 126 |
| OC1CSC(Oc2cccc(-c3ccnc(Cl)c3)c2)C(O)C1O (stereo unspecified) | 207 |
| COc1cc(OC)nc(Oc2c(Cl)cc(Cl)cc2C=O)n1 | 132 to 133 |
| COc1cc(S(C)(=O)=O)ccc1OCc1ccc(C2CCN(C(=O)OC(C)(C)C)CC2)cn1 | 135 to 138 |
| CC1(C)CC(CCn2c(=O)[nH]c3ncc(-c4ccc(O)cc4)nc32)CCO1 (stereo unspecified) | 232 to 234 |
| CSc1cc2c(cc1C(F)(F)F)N(C(=O)Nc1ccc(-c3csc(-c4cccnc4)n3)cc1)CC2 | > 25 |
| O=S(=O)(Nc1cccc(Br)c1)c1cc(S(=O)(=O)Nc2cccc(Br)c2)c2cc(O)ccc2c1 | 198 to 200 |
| CC1CCCC(C(=O)c2[nH]c3cc(Cl)ccc3c2N)C1 (stereo unspecified) | 140 to 142 |
